Source: patent US8609403B2, “Polynucleotide derived from novel hepatitis C virus strain and use thereof” (Tokyo Metropolitan Institute of Medical Science, priority 2009, dated 2013)

test system: HCV-RMT strain; assay: Evaluation of anti-HCV agents in Huh7 cells maintaining the RMT recombinant virus (triple mutation), HCV amount by real-time PCR; format: cell-based, hepatitis C virus; details: Huh7 cells 10 days after introduction of RMT-tri genome; agent added 16 hours after plating, total RNA purified 48 hours later; FIG. 8
Procedure: E1202G or the 3 acclimation mutations (E1202G, E1056V and A2199T) was/were introduced to pRMTx, and the obtained vectors were designated pRMTx-E1202G and pRMTx-tri, respectively. From pRMTx, pRMTx-E1202G and pRMTx-tri, viral genomic RNAs were prepared (RMT, RMT-E1202G and RMT-tri, respectively), and 30 μg each of the prepared genomic RNAs were introduced to Huh7 cells by electroporation. The cells were plated on a culture dish and subcultured 3 to 4 times per week, during which the cell were sampled. From the sampled cells, total RNA was purified by the AGPC method, and the copy number of the HCV genome per 1 μg of the total RNA was quantified according to a conventional method (Takeuchi et al., Gastroenterology, 1999) by reverse transcription real-time PCR using QuantiTect Multiplex PCR kit (manufactured by Qiagen). Daily changes in the copy number of the HCV genome in the cells to which RMT-RNA, RMT-E1202G-RNA and RMT-tri-RNA were respectively introduced are shown in FIG. 7.
Further, 10 days after the introduction of the genome, the cells in the state where the HCV genome was maintained were plated on a 96-well plate, and an agent was added thereto 16 hours later, followed by purification of total RNA 48 hours later from each well using ABI prizm 6100 and a purification kit (manufactured by Applied Biosystems). The HCV amount in the RNA, which was obtained by the above real-time PCR, and the total RNA amount quantified using an absorption spectrophotometer are shown in FIG. 8. As anti-HCV agents, an HCV polymerase inhibitor (MK0608), HCV protease inhibitor (BILN2061), IFN-α and cyclophilin inhibitor (cyclosporin A) were used.

Compound | growth inhibition capacities against HCV
COc1ccc2c(O[C@@H]3C[C@H]4C(=O)N[C@]5(C(=O)O)C[C@H]5/C=C\CCCCC[C@H](NC(=O)OC5CCCC5)C(=O)N4C3)cc(-c3csc(NC(C)C)n3)nc2c1 [BILN2061] | almost the same as those described in documents
C[C@@]1(O)[C@H](O)[C@@H](CO)O[C@H]1n1ccc2c(N)ncnc21 [MK0608] | almost the same as those described in documents
IFN-α | almost the same as those described in documents
